# Assay results: PubChem BioAssay (NCI)
#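 96-well plates; 48 h exposure; 5 concentrations. Endpoints by linear interpolation between flanking doses. Not reached: highest tested concentration assigned. The concentration for full growth arrest is given as TGI.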
# Tests used:
# Assay in all cases: growth of human tumour cells (NCI), 48 h
# RXF 393 renal = test system: RXF 393 renal
# HCT-15 colon = test system: HCT-15 colon
# SK-OV-3 ovarian = test system: SK-OV-3 ovarian
# T-47D breast = test system: T-47D breast
# SF-295 CNS = test system: SF-295 CNS
# CCRF-CEM leukemia = test system: CCRF-CEM leukemia
# EKVX NSCLC = test system: EKVX NSCLC
# MDA-N = test system: MDA-N
# SW-620 colon = test system: SW-620 colon
# MDA-MB-231 breast = test system: MDA-MB-231 breast
# A498 renal = test system: A498 renal
# BT-549 breast = test system: BT-549 breast
# U251 CNS = test system: U251 CNS
# SK-MEL-5 melanoma = test system: SK-MEL-5 melanoma
# DU-145 prostate = test system: DU-145 prostate
# HT29 colon = test system: HT29 colon
# SK-MEL-2 melanoma = test system: SK-MEL-2 melanoma
# LOX IMVI melanoma = test system: LOX IMVI melanoma
# A549 NSCLC = test system: A549 NSCLC
# OVCAR-5 ovarian = test system: OVCAR-5 ovarian
# RPMI-8226 leukemia = test system: RPMI-8226 leukemia
# COLO 205 colon = test system: COLO 205 colon
# IGROV1 ovarian = test system: IGROV1 ovarian
# UACC-62 melanoma = test system: UACC-62 melanoma
# UO-31 renal = test system: UO-31 renal
# SN12C renal = test system: SN12C renal
# HL-60(TB) leukemia = test system: HL-60(TB) leukemia
# SNB-19 CNS = test system: SNB-19 CNS
# SR leukemia = test system: SR leukemia
# SF-539 CNS = test system: SF-539 CNS
# NCI-H23 lung = test system: NCI-H23 lung
# MALME-3M melanoma = test system: MALME-3M melanoma
# OVCAR-4 ovarian = test system: OVCAR-4 ovarian
# SF-268 CNS = test system: SF-268 CNS
# OVCAR-3 ovarian = test system: OVCAR-3 ovarian
# OVCAR-8 ovarian = test system: OVCAR-8 ovarian
# NCI-H460 lung = test system: NCI-H460 lung
# SNB-75 CNS = test system: SNB-75 CNS
# HOP-92 NSCLC = test system: HOP-92 NSCLC
# MOLT-4 leukemia = test system: MOLT-4 leukemia
# HOP-62 NSCLC = test system: HOP-62 NSCLC
# TK-10 renal = test system: TK-10 renal
# MCF7 breast = test system: MCF7 breast
# MDA-MB-435 = test system: MDA-MB-435
# SK-MEL-28 melanoma = test system: SK-MEL-28 melanoma
# NCI-H522 lung = test system: NCI-H522 lung
# NCI/ADR-RES ovarian = test system: NCI/ADR-RES ovarian
# ACHN renal = test system: ACHN renal
# PC-3 prostate = test system: PC-3 prostate
# UACC-257 melanoma = test system: UACC-257 melanoma
# NCI-H226 lung = test system: NCI-H226 lung
# HCT-116 colon = test system: HCT-116 colon
# HCC-2998 colon = test system: HCC-2998 colon
# KM12 colon = test system: KM12 colon
# CAKI-1 renal = test system: CAKI-1 renal
# M14 melanoma = test system: M14 melanoma
# HS 578T breast = test system: HS 578T breast
# 786-0 renal = test system: 786-0 renal
# K-562 leukemia = test system: K-562 leukemia
smiles,measurement,setting,value
O=C(Nn1cc(F)c(=O)[nH]c1=O)C12CC3CC(CC(C3)C1)C2,TGI,RXF 393 renal,57.8 µM
same,TGI,HCT-15 colon,25.6 µM
same,TGI,SK-OV-3 ovarian,77.5 µM
same,TGI,T-47D breast,> 80.2 µM
same,TGI,SF-295 CNS,> 100 µM
same,TGI,CCRF-CEM leukemia,45 µM
same,TGI,EKVX NSCLC,> 89.1 µM
same,TGI,MDA-N,> 57 µM
same,TGI,SW-620 colon,> 96.4 µM
same,TGI,MDA-MB-231 breast,37 µM
same,TGI,A498 renal,> 81.2 µM
same,TGI,BT-549 breast,79.3 µM
same,TGI,U251 CNS,> 72 µM
same,TGI,SK-MEL-5 melanoma,12.2 µM
same,TGI,DU-145 prostate,> 100 µM
same,TGI,HT29 colon,37.1 µM
same,TGI,SK-MEL-2 melanoma,63.3 µM
same,TGI,LOX IMVI melanoma,27.8 µM
same,TGI,A549 NSCLC,> 100 µM
same,TGI,OVCAR-5 ovarian,> 95.1 µM
same,TGI,RPMI-8226 leukemia,42.5 µM
same,TGI,COLO 205 colon,23.5 µM
same,TGI,IGROV1 ovarian,27.5 µM
same,TGI,UACC-62 melanoma,24.4 µM
same,TGI,UO-31 renal,54.4 µM
same,TGI,SN12C renal,> 100 µM
same,TGI,HL-60(TB) leukemia,54.3 µM
same,TGI,SNB-19 CNS,> 100 µM
same,TGI,SR leukemia,26.8 µM
same,TGI,SF-539 CNS,16.3 µM
same,TGI,NCI-H23 lung,53 µM
same,TGI,MALME-3M melanoma,32.2 µM
same,TGI,OVCAR-4 ovarian,> 66.2 µM
same,TGI,SF-268 CNS,98.2 µM
same,TGI,OVCAR-3 ovarian,35.1 µM
same,TGI,OVCAR-8 ovarian,> 100 µM
same,TGI,NCI-H460 lung,19.7 µM
same,TGI,SNB-75 CNS,80.1 µM
same,TGI,HOP-92 NSCLC,42.6 µM
same,TGI,MOLT-4 leukemia,47.9 µM
same,TGI,HOP-62 NSCLC,51.8 µM
same,TGI,TK-10 renal,> 86.8 µM
same,TGI,MCF7 breast,> 100 µM
same,TGI,MDA-MB-435,> 56 µM
same,TGI,SK-MEL-28 melanoma,> 86.6 µM
same,TGI,NCI-H522 lung,44.5 µM
same,TGI,NCI/ADR-RES ovarian,> 100 µM
same,TGI,ACHN renal,63.8 µM
same,TGI,PC-3 prostate,45.5 µM
same,TGI,UACC-257 melanoma,> 100 µM
same,TGI,NCI-H226 lung,> 100 µM
same,TGI,HCT-116 colon,24.9 µM
same,TGI,HCC-2998 colon,18.4 µM
same,TGI,KM12 colon,49.1 µM
same,TGI,CAKI-1 renal,32.7 µM
same,TGI,M14 melanoma,> 72.6 µM
same,TGI,HS 578T breast,> 81.2 µM
same,TGI,786-0 renal,> 100 µM
same,TGI,K-562 leukemia,> 75.9 µM
